Experimental data published in patent publication US20240409566A1, “DELIVERY OF THERAPEUTIC ALKALOID COMPOUNDS” (priority 2022, published 2024).

Columns and labels:
[1] = Plasma stability assay, rat plasma; type: in vitro ADME
Description: (§1) Compound stability in rat and human plasma was measured by incubating compound with rat or human plasma at 37° C. in a microwell plate for sequential time points, monitoring pro-drug disappearance and metabolite appearance (mesembranol or 6-epi-mesembranol). A 2 mM stock solution of test compounds were prepared by dissolving appropriate amount of compounds in DMSO. The 2 mM stock was further diluted 200-folds in rat or human plasma to attain a final concentration of 10 μM respectively (0.5% DMSO). 50 μL aliquots of positive controls and test compounds spiked into rat or human plasma (n=2) were added to a pre-warmed plate (37° C.) and shaken at 50 rpm. At each respective time point, the reaction was stopped by adding 500 μL of acetonitrile containing internal standards (100 nM aprozolam, 200 nM caffeine, 100 nM tolbutamide). All samples were vortexed for 10 minutes, followed by centrifugation at 3,220 g for 30 minutes to precipitate proteins. 100 μL of the supernatant is transferred to a new plate. The supernatant will be diluted with ultrapure water according to the LC-MS signal response and peak shape. The concentrations of test compounds and positive control were quantified in the test samples using LC-MS/MS. Results reported as % of prodrug compound remaining at time point, and % of metabolite (mesembranol or 6-epi-mesembranol,) accumulated at time point.

[2] = Plasma stability assay, human plasma; type: in vitro ADME
Description: as §1

| Structure (SMILES) | Prodrug (%) ([1]; rat, 0 min, 10 µM) | Prodrug (%) ([1]; rat, 10 min, 10 µM) | Prodrug (%) ([1]; rat, 30 min, 10 µM) | Prodrug (%) ([1]; rat, 60 min, 10 µM) | Prodrug (%) ([1]; rat, 120 min, 10 µM) | Prodrug (%) ([1]; rat, 240 min, 10 µM) | Prodrug (%) ([2]; human, 0 min, 10 µM) | Prodrug (%) ([2]; human, 10 min, 10 µM) | Prodrug (%) ([2]; human, 30 min, 10 µM) | Prodrug (%) ([2]; human, 60 min, 10 µM) | Prodrug (%) ([2]; human, 120 min, 10 µM) | Prodrug (%) ([2]; human, 240 min, 10 µM) | further results |
| --- | --- | --- | --- | --- | --- | --- | --- | --- | --- | --- | --- | --- | --- |
| CCCC(=O)O[C@H]1CC[C@@]2(c3ccc(OC)c(OC)c3)CCN(C)[C@H]2C1 [Compound 106, (3aS,6S,7aS)-3a-(3,4-dimethoxyphenyl)-1-methyloctahydro-1H-indol-6-yl butyrate] | 100.0% | 39.9% | 2.75% | 0.7% | 0.2% | 0.1% | 100.00% | 93.04% | 87.33% | 79.39% | 67.04% | 50.22% |  |
| COc1ccc([C@@]23CC[C@@H](OCOC(=O)C(C)C)C[C@@H]2N(C)CC3)cc1OC [Compound 208, (((3aS,6R,7aS)-3a-(3,4-dimethoxyphenyl)-1-methyloctahydro-1H-indol-6-yl)oxy)methyl isobutyrate] | 100.0% | 0.0% | 0.0% | 0.0% | 0.0% | 0.0% | 100.0% | 0.1% | 0.2% | 0.2% | 0.0% | 0.0% |  |
| COc1ccc([C@@]23CC[C@H](OC(=O)C(C)(C)C)C[C@@H]2N(C)CC3)cc1OC [Compound 102, (3aS,6S,7aS)-3a-(3,4-dimethoxyphenyl)-1-methyloctahydro-1H-indol-6-yl pivalate] | 100.0% | >99.0% | 77.8% | 68.1% | 42.3% | 15.4% | 100.00% | 97.52% | 95.20% | 92.88% | >99.0% | 94.80% |  |
| COc1ccc([C@@]23CC[C@@H](OC(=O)c4ccccc4)C[C@@H]2N(C)CC3)cc1OC [Compound 204, (3aS,6R,7aS)-3a-(3,4-dimethoxyphenyl)-1-methyloctahydro-1H-indol-6-yl benzoate] |  |  |  |  |  |  |  |  |  |  |  |  | Prodrug (%) ([1]; rat plasma, 37° C., 10 μM, 0 min, % prodrug remaining): 100.0%; Prodrug (%) ([1]; rat plasma, 37° C., 10 μM, 10 min, % prodrug remaining): 38.7%; Prodrug (%) ([1]; rat plasma, 37° C., 10 μM, 30 min, % prodrug remaining): 5.9%; Prodrug (%) ([1]; rat plasma, 37° C., 10 μM, 60 min, % prodrug remaining): 0.6%; Prodrug (%) ([1]; rat plasma, 37° C., 10 μM, 120 min, % prodrug remaining): 0.1%; Prodrug (%) ([1]; rat plasma, 37° C., 10 μM, 240 min, % prodrug remaining): 0.0%; Prodrug (%) ([2]; human plasma, 37° C., 10 μM, 0 min, % prodrug remaining): 100.00%; Prodrug (%) ([2]; human plasma, 37° C., 10 μM, 10 min, % prodrug remaining): 97.40%; Prodrug (%) ([2]; human plasma, 37° C., 10 μM, 30 min, % prodrug remaining): 94.26%; Prodrug (%) ([2]; human plasma, 37° C., 10 μM, 60 min, % prodrug remaining): 92.22%; Prodrug (%) ([2]; human plasma, 37° C., 10 μM, 120 min, % prodrug remaining): 93.59%; Prodrug (%) ([2]; human plasma, 37° C., 10 μM, 240 min, % prodrug remaining): 91.87% |
| COc1ccc([C@@]23CC[C@@H](OCOC(=O)C(C)(C)C)C[C@@H]2N(C)CC3)cc1OC [Compound 207, (((3aS,6R,7aS)-3a-(3,4-dimethoxyphenyl)-1-methyloctahydro-1H-indol-6-yl)oxy)methyl pivalate] | 100.0% | 26.5% | 0.5% | 0.0% | 0.0% | 0.0% | 100.0% | 42.0% | 6.9% | 1.6% | 0.7% | 0.1% |  |
| CCCC(=O)OCO[C@@H]1CC[C@@]2(c3ccc(OC)c(OC)c3)CCN(C)[C@H]2C1 [Compound 210, (((3aS,6R,7aS)-3a-(3,4-dimethoxyphenyl)-1-methyloctahydro-1H-indol-6-yl)oxy)methyl butyrate] | 100.0% | 0.0% | 0.0% | 0.0% | 0.1% | 0.1% | 100.0% | 0.5% | 1.0% | 0.6% | 0.1% | 0.1% |  |
| CCCCC(=O)O[C@H]1CC[C@@]2(c3ccc(OC)c(OC)c3)CCN(C)[C@H]2C1 [Compound 105, (3aS,6S,7aS)-3a-(3,4-dimethoxyphenyl)-1-methyloctahydro-1H-indol-6-yl pentanoate] | 100.0% | 10.8% | 0.5% | 0.1% | 0.0% | 0.0% | 100.00% | 96.40% | 89.85% | 81.61% | 72.68% | 50.16% |  |
| COc1ccc([C@@]23CC[C@H](OC(=O)C(C)C)C[C@@H]2N(C)CC3)cc1OC [Compound 103, (3aS,6S,7aS)-3a-(3,4-dimethoxyphenyl)-1-methyloctahydro-1H-indol-6-yl isobutyrate] | 100.0% | 56.1% | 12.2% | 0.6% | 0.1% | 0.0% | 100.00% | >99.0% | >99.0% | 97.28% | 97.48% | 87.17% |  |
| COc1ccc([C@@]23CC[C@H](OC(=O)N(C)C)C[C@@H]2N(C)CC3)cc1OC [Compound 101, (3aS,6S,7aS)-3a-(3,4-dimethoxyphenyl)-1-methyloctahydro-1H-indol-6-yl dimethylcarbamate] | 100.0% | 88.7% | 95.0% | 98.2% | 99.4% | 92.2% | 100.00% | >99.0% | >99.0% | >99.0% | >99.0% | >99.0% |  |
| COc1ccc([C@@]23CC[C@@H](OC(=O)C(C)(C)C)C[C@@H]2N(C)CC3)cc1OC [Compound 202, (3aS,6R,7aS)-3a-(3,4-dimethoxyphenyl)-1-methyloctahydro-1H-indol-6-yl pivalate] | 100.0% | 80.6% | 38.9% | 9.6% | 0.6% | 0.0% | 100.0% | >99.0% | >99.0% | 96.3% | 94.7% | 88.1% |  |
| CCCC(=O)OC1CC[C@@]2(c3ccc(OC)c(OC)c3)CCN(C)[C@H]2C1 (stereo in doubt) [Compound 206, (3aS,6S,7aS)-3a-(3,4-dimethoxyphenyl)-1-methyloctahydro-1H-indol-6-yl butyrate] | 100.0% | 0.8% | 0.1% | 0.0% | 0.0% | 0.0% | 100.0% | >99.0% | 92.7% | 83.8% | 79.1% | 68.0% |  |
